{"source": "patent US20240216412A1", "about": "“OXIDIZED NICOTINAMIDE ADENINE DINUCLEOTIDE (NAD+) PRECURSOR TREATMENT FOR HEART FAILURE ALLEVIATION INDEPENDENT OF MITOCHONDRIAL PROTEIN DEACETYLATION” (University of Washington, priority 2022, published 2024)", "key": {"RXRα": {"test_system": "RXRα", "assay": "Chromatin immunoprecipitation (ChIP) of RXRα at the Acadm promoter PPRE", "format": "in vivo", "details": "ISO mouse hearts, NR", "experimental": "Chromatin immunoprecipitation (ChIP). The EZ ChIP kit (EMD Millipore catalog #17-371) was used according to the manufacturer's protocol. Briefly, heart tissue was cut into small pieces using a razor blade in a petri dish on ice. The cubed tissue was incubated in fixation solution (1% formaldehye) in a conical tube and rotated at room temperature for 15 minutes to crosslink proteins and chromatin. The reaction was stopped by adding 0.125M Glycine for 5 min at room temperature. The contents were homogenized with a hand-held tissue homogenizer for 45 seconds then pelleted by centrifugation for 3 minutes at 1,250×g at 4C. The supernatant was discarded and the pellet was resuspended in 10 ml ice-cold PBS wash buffer followed by centrifugation at 1,250×g for 3 minutes. This was wash step was repeated on ice. The supernatant was discarded and the pellet resuspended in 5 ml chromatin prep buffer and incubated on ice for 10 minutes. The resuspended pellet was homogenized on ice with a dounce homogenizer for 30 strokes and then contents transferred to new conical tube on ice. The suspension was centrifuged 3 minutes at 1,250×g at 4C then supernatant discarded. The pellet was resuspended in 1 ml Chip buffer and transferred to new centrifuge tube then incubated on ice for 10 minutes. […] Purified chromatin was analyzed on a 1% agarose gel to determine the shearing efficiency. […]"}, "[1]": {"test_system": "chronic pressure overload (TAC) induced heart failure in WT and Sirt3Ko mice", "assay": "Transthoracic echocardiography after transverse aortic constriction (TAC) or sham surgery", "format": "in vivo, mouse", "details": "for EF / FS / IVS; s / LV Mass / LV Mass (corr.) / LV Vol; d / LV Vol; s / LVID; d / LVID; s / LVPW; d / LVPW; s: NR; for IVS; d: NR 500 mg/kg body weight daily for eight weeks", "description": "The present disclosure provides boosting intracellular NAD^+ with nicotinamide riboside chloride (NR) to protect Sirtuin 3 (Sirt3) knockout mice from heart failure. NR is a natural NAD precursor that bypasses nicotinamide phosphoribosyltransferase (NAMPT) to stimulate intracellular NAD^+ synthesis via the Nrk reaction (Bieganowski and Brenner, 2004; Canto et al., 2012; Diguet et al., 2018; Trammell et al., 2016). […] Immunoblotting confirmed the absence of Sirt3 and increased lysine acetylation in mitochondrial extracts from the knockout hearts (FIG. 9A). Pressure overload was induced by transverse aortic constriction (TAC) surgery for 12 weeks. Intracellular NAD^+ level was increased when mice had already developed cardiac hypertrophy and dysfunction, to model a therapeutic approach (FIG. 1A). After 4 weeks of chronic pressure overload, cardiac function was assessed using trans-thoracic M-mode echocardiography.\nMice randomly received either NR (500 mg/kg body weight) (Canto et al., 2012) or vehicle saline daily for eight-weeks. Representative M-mode images for the echocardiography can be found in FIGS. 1C and 1D. Four weeks of chronic pressure overload caused similar declines in left ventricular fractional shortening (FS %) in mice randomized to NR or vehicle groups for either WT or Sirt3Ko (FIGS. 1E and 1F). […] Similar to NR treated WT, cardiac hypertrophy, left ventricular cavity dilation, and lung edema were less severe in Sirt3Ko TAO mice that received NR treatment (FIGS. 1B-1J). All echocardiography parameters can be found in Table 1 below.\nAll procedures involving animal use were approved by the Institutional Animal Care and Use Committee (IACUC) of the University of Washington. Wild-type mice (129S1/SvlmJ Stock No: 002448) and Sirtuin 3 knockout mice (129-Sirt3tm1.1Fwa/J Stock No: 012755) were purchased from Jackson Laboratories. All mice were housed at 22° C. with a 12-hr light, 12-hr dark cycle with free access to water and standard chow. Male mice were used for experiments in this study.\nTransverse aortic constriction. Male mice (3-4 months old) underwent transverse aortic constriction (TAC) or sham surgery. Briefly, mice were anesthetized with an IP injection of 130 mg/kg ketamine and 8.8 mg/kg xylazine in saline. Mice were intubated with 20 G cannula and ventilated 140 breaths per minute by small animal TOPO ventilator (Kent Scientific). The aortic arch was exposed via a left thoracotomy and by carefully separating the thymus. A constriction of the transverse aorta was generated by tying a 6-0 Ethilon ligature against a 27-gauge blunt needle around the aorta between the brachiocephalic and left common carotid arteries. Promptly the needle was removed and the chest and skin were closed by 5-0 polypropylene suture. The animal was removed from ventilation and kept on a heating blanket during recovery from anesthesia. SR buprenorphine (0.05 mg/kg) was administered subcutaneously for analgesia. Sham operated mice underwent all the same procedures as TAC mice excluding the constriction of the aorta. All mice were monitored every 12 h during the first 72 h post-surgery, followed by daily visits over the next 4 weeks.\nTransthoracic Echocardiography. Echocardiography of hearts was performed at indicated time after surgery using the VEVO 2100 high-frequency, high-resolution digital imaging system (VisualSonics) equipped with a MS400 Microscan Transducer on anesthetized mice (0.5%-2% isoflurane in 95% oxygen). Measurements were made when heart rate was >450 bpm. Cardiac function and geometry measurements were measured in parasternal short axis view. M-mode images were used for analysis and calculated by the average of at least three cardiac cycles and carried out in a blind fashion. Hearts were harvested at 12-week post-surgery for subsequent experiments and biochemical assays."}}}
{"smiles": "NC(=O)c1ccc[n+]([C@@H]2O[C@H](CO)[C@@H](O)[C@H]2O)c1", "note": "[NR, Nicotinamide riboside chloride]", "values": [{"measurement": "Binding occupancy of RXRα to the PPARα response element (PPRE) in the Acadm promoter", "setting": "RXRα", "result": "increased"}, {"measurement": "Left ventricular cavity dilation", "setting": "[1]; Sirt3Ko TAC mice, similar to NR treated WT", "result": "less severe"}, {"measurement": "Advances of heart failure", "setting": "[1]; Sirt3Ko TAC mice, vs vehicle treatment", "result": "protected the Sirt3Ko TAO mice from advances of heart failure"}, {"measurement": "EF", "setting": "[1]; Sirt3Ko, Sham", "result": 71.3, "unit": "%"}, {"measurement": "FS", "setting": "[1]; Sirt3Ko, Sham", "result": 39.7, "unit": "%"}, {"measurement": "IVS; s", "setting": "[1]; Sirt3Ko, Sham", "result": 1.49, "unit": "mm"}, {"measurement": "LV Mass", "setting": "[1]; Sirt3Ko, Sham", "result": 146.9, "unit": "mg"}, {"measurement": "LV Mass (corr.)", "setting": "[1]; Sirt3Ko, Sham", "result": 117.5, "unit": "mg"}, {"measurement": "LV Vol; d", "setting": "[1]; Sirt3Ko, Sham", "result": 42.0, "unit": "µL"}, {"measurement": "LV Vol; s", "setting": "[1]; Sirt3Ko, Sham", "result": 12.1, "unit": "µL"}, {"measurement": "LVID; d", "setting": "[1]; Sirt3Ko, Sham", "result": 3.21, "unit": "mm"}, {"measurement": "LVID; s", "setting": "[1]; Sirt3Ko, Sham", "result": 1.94, "unit": "mm"}, {"measurement": "LVPW; d", "setting": "[1]; Sirt3Ko, Sham", "result": 1.30, "unit": "mm"}, {"measurement": "LVPW; s", "setting": "[1]; Sirt3Ko, Sham", "result": 1.69, "unit": "mm"}, {"measurement": "IVS; d", "setting": "[1]; Sirt3Ko, Sham", "result": 1.04, "unit": "mm"}, {"measurement": "EF", "setting": "[1]; Sirt3Ko, TAC", "result": 59.2, "unit": "%"}, {"measurement": "FS", "setting": "[1]; Sirt3Ko, TAC", "result": 30.9, "unit": "%"}, {"measurement": "IVS; s", "setting": "[1]; Sirt3Ko, TAC", "result": 1.67, "unit": "mm"}, {"measurement": "LV Mass", "setting": "[1]; Sirt3Ko, TAC", "result": 168.9, "unit": "mg"}, {"measurement": "LV Mass (corr.)", "setting": "[1]; Sirt3Ko, TAC", "result": 135.1, "unit": "mg"}, {"measurement": "LV Vol; d", "setting": "[1]; Sirt3Ko, TAC", "result": 47.8, "unit": "µL"}, {"measurement": "LV Vol; s", "setting": "[1]; Sirt3Ko, TAC", "result": 19.8, "unit": "µL"}, {"measurement": "LVID; d", "setting": "[1]; Sirt3Ko, TAC", "result": 3.39, "unit": "mm"}, {"measurement": "LVID; s", "setting": "[1]; Sirt3Ko, TAC", "result": 2.35, "unit": "mm"}, {"measurement": "LVPW; d", "setting": "[1]; Sirt3Ko, TAC", "result": 1.22, "unit": "mm"}, {"measurement": "LVPW; s", "setting": "[1]; Sirt3Ko, TAC", "result": 1.51, "unit": "mm"}, {"measurement": "IVS; d", "setting": "[1]; Sirt3Ko, TAC", "result": 1.22, "unit": "mm"}, {"measurement": "Fractional shortening (FS %)", "setting": "[1]; WT TAC mice, 8-week treatment", "result": "preserved FS %"}, {"measurement": "EF", "setting": "[1]; Wildtype, Sham", "result": 78.9, "unit": "%"}, {"measurement": "FS", "setting": "[1]; Wildtype, Sham", "result": 46.3, "unit": "%"}, {"measurement": "IVS; s", "setting": "[1]; Wildtype, Sham", "result": 1.72, "unit": "mm"}, {"measurement": "LV Mass", "setting": "[1]; Wildtype, Sham", "result": 141.9, "unit": "mg"}, {"measurement": "LV Mass (corr.)", "setting": "[1]; Wildtype, Sham", "result": 113.5, "unit": "mg"}, {"measurement": "LV Vol; d", "setting": "[1]; Wildtype, Sham", "result": 37.3, "unit": "µL"}, {"measurement": "LV Vol; s", "setting": "[1]; Wildtype, Sham", "result": 7.9, "unit": "µL"}, {"measurement": "LVID; d", "setting": "[1]; Wildtype, Sham", "result": 3.07, "unit": "mm"}, {"measurement": "LVID; s", "setting": "[1]; Wildtype, Sham", "result": 1.65, "unit": "mm"}, {"measurement": "LVPW; d", "setting": "[1]; Wildtype, Sham", "result": 1.27, "unit": "mm"}, {"measurement": "LVPW; s", "setting": "[1]; Wildtype, Sham", "result": 1.64, "unit": "mm"}, {"measurement": "IVS; d", "setting": "[1]; Wildtype, Sham", "result": 1.12, "unit": "mm"}, {"measurement": "EF", "setting": "[1]; Wildtype, TAC", "result": 62.5, "unit": "%"}, {"measurement": "FS", "setting": "[1]; Wildtype, TAC", "result": 32.7, "unit": "%"}, {"measurement": "IVS; s", "setting": "[1]; Wildtype, TAC", "result": 1.78, "unit": "mm"}, {"measurement": "LV Mass", "setting": "[1]; Wildtype, TAC", "result": 183.9, "unit": "mg"}, {"measurement": "LV Mass (corr.)", "setting": "[1]; Wildtype, TAC", "result": 147.1, "unit": "mg"}, {"measurement": "LV Vol; d", "setting": "[1]; Wildtype, TAC", "result": 36.7, "unit": "µL"}, {"measurement": "LV Vol; s", "setting": "[1]; Wildtype, TAC", "result": 13.7, "unit": "µL"}, {"measurement": "LVID; d", "setting": "[1]; Wildtype, TAC", "result": 3.04, "unit": "mm"}, {"measurement": "LVID; s", "setting": "[1]; Wildtype, TAC", "result": 2.04, "unit": "mm"}, {"measurement": "LVPW; d", "setting": "[1]; Wildtype, TAC", "result": 1.52, "unit": "mm"}, {"measurement": "LVPW; s", "setting": "[1]; Wildtype, TAC", "result": 1.85, "unit": "mm"}, {"measurement": "IVS; d", "setting": "[1]; Wildtype, TAC", "result": 1.30, "unit": "mm"}]}
